Usually MIC stands for the least concentration at which growth counts as inhibited.

Experimental findings from patent publication US10640507B2, “PBD antibacterial agents” (KING'S COLLEGE LONDON, priority 2015, dated 2020) are described below.

In brackets after ≈: the same amount, converted by molar mass. Like-named read-outs stand apart in the source and are kept apart here. Some results are limits rather than exact numbers.

The target in assay [1] is T1, E. coli Topo IV (Escherichia coli, UniProt P0AFI2+P20083).
T1 construct: purchased Inspiralis (Norwich, UK) TRIV01
The assay is described as follows: Topo IV microplate assay. Type of assay: biochemical. Conditions: agent 10-75 μM, FIG. 5. The procedure: (§1) The effect of the antimicrobial agents on gyrase was assessed using E. coli gyrase microplate assay kit (# TRG01) and with S. aureus gyrase microplate assay kit (# SATRG01). The effect of topoisomerase IV using was assessed using E. coli Topo IV microplate assay kit (# TRIV01) and with the S. aureus Topo IV microplate assay kit (# SATRIV01). All of these assay kits were obtained from Inspiralis (Norwich, UK). These assay kits are supplied with the relevant enzyme, substrate and buffers.
(§2) 1. Rehydrate wells with 3×200 μl Wash buffer (diluted from 20× stock with ultra-pure water).
(§3) 2. Immobilise 100 μl of 500 nM TF01 oligo in each well (5 μl of 10 μM TF01 oligo in 95 μl wash buffer).
(§4) 3. Incubate 5 minutes at room temperature.
(§5) 4. Wash off excess oligo with 3×200 μl Wash buffer.
(§6) 5. Incubate 2U (0.4 μl stock) of gyrase with 0.75 μg of relaxed pN01 in a reaction volume of 30 μl at 37° C. for 30 minutes in assay buffer—This is the part agent is added therefore the reaction volume is adjusted to account for this.
(§7) 6. Add 100 μl TF buffer (diluted from 20× stock) to well and incubate for a further 30 minutes at room temperature to allow triplex formation.
(§8) 7. Remove liquid from well and wash with 3×200 μl TF buffer to wash away unbound plasmid.
(§9) 8. Stain with DNA detection dye (diluted to ix with T10 buffer). Add 200 μl per well and incubate for 10-20 minutes at room temperature.
(§10) 9. Mix well and read in fluorescence plate reader Excitation wavelength: 495 nm; Emission wavelength: 537 nm. Use 485/520 filters in plate reader in 231.
(§11) 10. If required 10 μl of sample can be used to run on 1% agarose gel.
(§12) As the reaction volume is 30 μl make concentrations at 30× greater than required so 1 μl of the appropriate concentration can be added to the reaction. For each agent concentrations from a range of 10-75 μM.
(§13) The procedure for assessing effect of the agents on topoisomerase IV was the same as for the gyrase apart from the following changes; 1.5 U of topoisomerase IV was used in place of gyrase and supercoiled pN01 instead of relaxed pN01 was used in step 5. Results obtained were normalised using the following equation: […]
(§14) Xmin—minima among all data points
(§15) Xmax—maxima among all data points
(§16) Xi0-1—data point normalised between 0-1

In assay [2] the target is T2, S. aureus Topo IV (Staphylococcus aureus, UniProt P0C1S7+P0C1U9).
T2 construct: purchased Inspiralis (Norwich, UK) SATRIV01
The assay is described as follows: Topo IV microplate assay. It counts as biochemical. As to conditions: agent 10-75 μM, FIG. 5. How it is done:
as §1, §2, §3, §4, §5, §6, §7, §8, §9, §10, §11, §12, §13, §14, §15, §16

Assay [3] deals with T3, E. coli gyrase (Escherichia coli, UniProt P0AES4+P0AES6).
T3 construct: purchased Inspiralis (Norwich, UK) TRG01
Briefly: Gyrase microplate assay. Conditions: agent 10-75 μM, FIG. 6. Type of assay: biochemical. How it is done: as §1, §2, §3, §4, §5, §6, §7, §8, §9, §10, §11, §12, §14, §15, §16

Assay [4] deals with T4, S. aureus gyrase (Staphylococcus aureus, UniProt P0A0K8+P20831).
T4 construct: purchased Inspiralis (Norwich, UK) SATRG01
The assay is described as follows: Gyrase microplate assay. Type of assay: biochemical. Conditions: agent 10-75 μM, FIG. 6. The procedure: as §1, §2, §3, §4, §5, §6, §7, §8, §9, §10, §11, §12, §14, §15, §16

For assay [5], the system named is M6. Briefly: Effect of efflux pump inhibitors (EPIs) on MIC. Conditions: for MIC: Klebsiella pneumoniae; for +PABN MIC: PABN at 25 μg/ml. It counts as cell-based, K. pneumoniae. How it is done:
(§17) 1. Grow up cultures of bacterial strains to be tested overnight.
(§18) 2. Dilute down overnight cultures to concentration of 1×10^6 bacteria/ml (OD0.01) in Tryptic soy broth (TSB).
(§19) 3. Add 100 μl of TSB media to column 2-column 12 in 96 well plate (keeping column 1 clear).
(§20) 4. Make up compound to a concentration of 64 μg/ml in water.
(§21) 5. Add 100 μl of antibiotic solution to the 1st and 2nd columns.
(§22) 6. Using a multichannel pipette take 100 μl from the 2nd column wells and pipette into 3rd column wells and repeat down the 96 well plate (remember to include controls i.e. uninfected media and media with no antibiotic).
(§23) 7. To each well (except uninfected control row H) add 50 μl/well of EPI at 4× final concentration in TSB.
(§24) 9. In wells used to test the effect of the EPI carbonyl cyanide 3-chlorophenylhydrazone (CCCP) the CCCP is added at 10 μg/ml final concentration.
(§25) 10. In wells used to test the effect of the EPI phenylalanine-arginine β-naphthylamide (PABN) the PABN is added at 25 μg/ml final concentration.
(§26) 11. In wells used to test the effect of the PABN+Mg, the PABN is added at 25 μg/ml final concentration, with 1 mM MgSO4 in TSB.
(§27) 12. Wrap plate with parafilm to prevent evaporation.
(§28) 13. Leave at desired temperature (37° C. unless specified elsewhere) for 20 hours.
(§29) 14. Next day check plates for growth and measure optical density (i.e. absorbance) at a wavelength of 600 nm (OD600).
(§30) Compound KMR-14-33 was tested against a range of bacterial species using the above protocol. Compound PP-A148 was also tested against a more limited range of bacterial species using the above protocol. For KMR-14-33 measurements were carried out for the compound alone, for the compound plus CCCP, for the compound plus PABN and for the compound plus PABN and plus Mg. For PP-A148 measurements were carried out for the compound alone and for the compound plus PABN.

For assay [6], the system named is NCTC 13368. Briefly: Effect of efflux pump inhibitors (EPIs) on MIC. It counts as cell-based, K. pneumoniae. Conditions: for MIC: Klebsiella pneumoniae; for +PABN MIC: PABN at 25 μg/ml. The procedure: as §17, §18, §19, §20, §21, §22, §23, §24, §25, §26, §27, §28, §29, §30
The test system of assay [7] is P. aeruginosa NCTC 13437. Briefly: General MIC protocol, Gram negative. Type of assay: cell-based. In a few lines: (§31)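 TSB cultures at 5×10^5/ml exposed to halving compound concentrations (32 μg/ml highest final); 20 h incubation at 37° C, growth measured at 600 nm.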
In assay [8] the test system is K. pneumonia NCTC 13438. The assay is described as follows: General MIC protocol, Gram negative. It counts as cell-based. Conditions: Klebsiella pneumoniae, NCTC13438. In outline: as §31
[9] abbreviates: read-out: Control with no EPI MIC.
The mark [10] stands for this setting: NCTC13368, read-out: Control with no EPI MIC.
[11] abbreviates: Pseudomonas aeruginosa, NCTC13437.

T2 sequence (P0C1U9 whole entry): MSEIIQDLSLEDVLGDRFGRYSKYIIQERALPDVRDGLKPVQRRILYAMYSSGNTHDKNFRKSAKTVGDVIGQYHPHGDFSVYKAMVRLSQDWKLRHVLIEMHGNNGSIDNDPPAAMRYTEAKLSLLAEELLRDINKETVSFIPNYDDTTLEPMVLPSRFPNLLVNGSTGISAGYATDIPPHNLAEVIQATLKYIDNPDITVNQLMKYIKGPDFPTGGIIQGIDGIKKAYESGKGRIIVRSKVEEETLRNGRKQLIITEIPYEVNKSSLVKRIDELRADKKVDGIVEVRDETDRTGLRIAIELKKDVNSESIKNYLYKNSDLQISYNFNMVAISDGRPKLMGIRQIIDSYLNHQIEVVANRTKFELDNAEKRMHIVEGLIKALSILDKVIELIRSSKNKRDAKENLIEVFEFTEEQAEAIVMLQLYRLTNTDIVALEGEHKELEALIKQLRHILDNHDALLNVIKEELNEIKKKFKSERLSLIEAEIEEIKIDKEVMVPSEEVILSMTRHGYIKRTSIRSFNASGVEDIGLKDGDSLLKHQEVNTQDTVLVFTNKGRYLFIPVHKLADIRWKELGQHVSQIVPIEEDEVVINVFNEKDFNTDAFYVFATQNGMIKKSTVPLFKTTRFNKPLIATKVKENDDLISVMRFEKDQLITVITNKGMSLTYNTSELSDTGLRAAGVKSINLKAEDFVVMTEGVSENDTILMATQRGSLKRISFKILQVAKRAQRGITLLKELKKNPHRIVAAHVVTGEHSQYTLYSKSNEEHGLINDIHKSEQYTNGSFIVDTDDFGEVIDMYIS
T2 sequence (P0C1S7 whole entry): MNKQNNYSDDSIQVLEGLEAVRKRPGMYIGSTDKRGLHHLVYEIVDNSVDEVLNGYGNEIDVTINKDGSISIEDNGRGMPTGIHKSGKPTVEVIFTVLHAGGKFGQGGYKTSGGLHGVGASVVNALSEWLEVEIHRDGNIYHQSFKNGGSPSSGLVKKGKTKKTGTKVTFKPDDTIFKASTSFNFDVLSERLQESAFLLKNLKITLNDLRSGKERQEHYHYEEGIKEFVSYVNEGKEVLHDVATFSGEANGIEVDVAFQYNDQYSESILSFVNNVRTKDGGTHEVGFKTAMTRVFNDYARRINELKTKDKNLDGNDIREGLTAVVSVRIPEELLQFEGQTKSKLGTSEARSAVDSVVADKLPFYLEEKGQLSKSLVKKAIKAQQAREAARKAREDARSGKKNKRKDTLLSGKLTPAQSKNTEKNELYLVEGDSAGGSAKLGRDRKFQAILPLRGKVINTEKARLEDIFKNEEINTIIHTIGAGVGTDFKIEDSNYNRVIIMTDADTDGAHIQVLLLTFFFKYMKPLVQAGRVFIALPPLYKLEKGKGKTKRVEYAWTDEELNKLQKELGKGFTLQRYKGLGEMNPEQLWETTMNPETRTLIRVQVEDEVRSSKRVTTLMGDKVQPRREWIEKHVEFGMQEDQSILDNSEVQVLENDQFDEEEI
T3 sequence (P0AES4 whole entry, one chain of several): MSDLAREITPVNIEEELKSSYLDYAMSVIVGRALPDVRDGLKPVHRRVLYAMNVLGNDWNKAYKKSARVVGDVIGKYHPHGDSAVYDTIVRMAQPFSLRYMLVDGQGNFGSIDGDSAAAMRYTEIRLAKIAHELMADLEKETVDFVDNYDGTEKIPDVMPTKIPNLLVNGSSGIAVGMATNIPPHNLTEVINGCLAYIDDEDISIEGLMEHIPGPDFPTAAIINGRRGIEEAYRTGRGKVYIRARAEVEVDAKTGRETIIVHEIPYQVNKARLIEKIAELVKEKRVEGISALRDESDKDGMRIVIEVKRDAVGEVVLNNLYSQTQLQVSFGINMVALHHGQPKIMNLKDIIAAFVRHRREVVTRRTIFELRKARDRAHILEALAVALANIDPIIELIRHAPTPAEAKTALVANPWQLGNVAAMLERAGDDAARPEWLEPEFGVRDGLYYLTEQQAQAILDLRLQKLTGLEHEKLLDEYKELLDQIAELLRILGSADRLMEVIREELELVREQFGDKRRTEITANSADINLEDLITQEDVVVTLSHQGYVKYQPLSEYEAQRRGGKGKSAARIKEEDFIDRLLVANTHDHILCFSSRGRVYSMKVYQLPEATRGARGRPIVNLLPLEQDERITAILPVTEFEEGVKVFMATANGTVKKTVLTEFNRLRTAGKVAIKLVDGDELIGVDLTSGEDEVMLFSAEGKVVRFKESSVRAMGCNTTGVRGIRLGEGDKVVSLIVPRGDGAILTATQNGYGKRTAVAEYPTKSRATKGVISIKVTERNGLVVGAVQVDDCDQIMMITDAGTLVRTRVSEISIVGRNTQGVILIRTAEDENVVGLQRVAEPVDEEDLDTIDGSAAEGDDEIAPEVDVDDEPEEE
T4 sequence (P0A0K8 whole entry): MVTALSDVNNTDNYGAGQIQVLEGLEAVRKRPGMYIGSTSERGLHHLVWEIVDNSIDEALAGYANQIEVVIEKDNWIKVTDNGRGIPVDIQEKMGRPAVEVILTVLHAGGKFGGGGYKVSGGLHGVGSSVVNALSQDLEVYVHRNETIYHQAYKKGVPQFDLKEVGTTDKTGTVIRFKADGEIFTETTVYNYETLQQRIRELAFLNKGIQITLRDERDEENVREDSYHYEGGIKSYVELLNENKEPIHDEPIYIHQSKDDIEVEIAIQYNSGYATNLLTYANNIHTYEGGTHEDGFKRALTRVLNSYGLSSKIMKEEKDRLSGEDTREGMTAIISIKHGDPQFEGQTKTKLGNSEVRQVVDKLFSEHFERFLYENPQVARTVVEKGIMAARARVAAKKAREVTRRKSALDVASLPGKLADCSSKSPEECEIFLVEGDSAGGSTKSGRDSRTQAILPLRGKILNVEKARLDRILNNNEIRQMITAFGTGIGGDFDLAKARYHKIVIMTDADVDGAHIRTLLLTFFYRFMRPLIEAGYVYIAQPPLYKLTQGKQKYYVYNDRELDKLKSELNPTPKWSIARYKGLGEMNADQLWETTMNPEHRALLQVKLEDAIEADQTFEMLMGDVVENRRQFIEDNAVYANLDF
T4 sequence (P20831 whole entry): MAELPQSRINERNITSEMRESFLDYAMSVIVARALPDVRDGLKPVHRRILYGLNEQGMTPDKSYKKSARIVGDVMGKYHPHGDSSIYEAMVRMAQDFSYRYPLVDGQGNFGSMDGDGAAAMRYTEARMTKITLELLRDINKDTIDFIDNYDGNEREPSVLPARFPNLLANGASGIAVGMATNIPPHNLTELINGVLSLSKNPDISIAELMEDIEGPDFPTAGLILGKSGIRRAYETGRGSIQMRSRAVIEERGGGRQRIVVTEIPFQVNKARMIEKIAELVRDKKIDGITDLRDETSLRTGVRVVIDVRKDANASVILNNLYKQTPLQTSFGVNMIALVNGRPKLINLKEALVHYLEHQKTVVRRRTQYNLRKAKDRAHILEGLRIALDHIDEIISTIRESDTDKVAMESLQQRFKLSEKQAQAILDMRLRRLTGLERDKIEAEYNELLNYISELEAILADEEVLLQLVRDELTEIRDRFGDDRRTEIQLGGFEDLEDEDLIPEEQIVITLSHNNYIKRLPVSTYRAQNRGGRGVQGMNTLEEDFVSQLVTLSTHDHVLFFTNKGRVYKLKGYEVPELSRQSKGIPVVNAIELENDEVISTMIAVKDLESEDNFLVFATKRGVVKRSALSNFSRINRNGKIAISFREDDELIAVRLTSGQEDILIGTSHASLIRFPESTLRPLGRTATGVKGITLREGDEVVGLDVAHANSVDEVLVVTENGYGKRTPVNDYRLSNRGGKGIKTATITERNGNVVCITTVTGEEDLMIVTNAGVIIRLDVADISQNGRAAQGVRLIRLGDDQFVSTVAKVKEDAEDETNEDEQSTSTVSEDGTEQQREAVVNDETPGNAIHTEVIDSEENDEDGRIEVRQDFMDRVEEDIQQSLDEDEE

In the case of `O=C(O)c1cn(C2CC2)c2cc(N3CCNCC3)c(F)cc2c1=O` [CIP, ciprofloxacin, reference compound], the “effect on topoisomerase IV” value in assay [1] and in assay [2] was “inhibits” in each case. Moreover, the effect on gyrase result in assay [3] and in assay [4] was “inhibits” each time.
Regarding `COc1cc2c(cc1OCCCC(=O)Nc1cc(C(=O)Nc3ccc4sc(C(=O)N(C)C)cc4c3)n(C)c1)N=C[C@@H]1CCCN1C2=O` [KMR-14-33, (S)—N-(2-(dimethylcarbamoyl)benzo[b]thiophen-5-yl)-4-(4-((7-methoxy-5-oxo-2,3,5,11a-tetrahydro-1H-benzo[e]pyrrolo[1,2-a][1,4]-diazepin-8-yl)oxy)butanamido)-1-methyl-1H-pyrrole-2-carboxamide], the MIC is 0.125 µg/mL (≈ 0.19 µM) in assay [5] (read-out: +CCCP MIC); 1 µg/mL (≈ 1.52 µM) in assay [5] (setting [9]); 2 µg/mL (≈ 3.05 µM) in assay [6] (NCTC13368, read-out: +CCCP MIC); 2 µg/mL (≈ 3.05 µM) in assay [6] (setting [10]); 32 µg/mL (≈ 48.7 µM) in assay [7] (NCTC 13437, KMR-14-33 alone); over 32 µg/mL in assay [7] (setting [11]). Besides, the lowest concentration to inhibit growth in assay [8] (MIC) was 0.5 µg/mL (≈ 0.761 µM). The “+PABN MIC” value in assay [5] (M6) turned out to be 0.125 µg/mL; in assay [6] (NCTC 13368), 1 µg/mL. Besides, the “+PABN + Mg MIC” value was 0.25 µg/mL in assay [5] (M6, PABN at 25 μg/ml with 1 mM MgSO4) and 0.5 µg/mL in assay [6] (NCTC 13368, PABN at 25 μg/ml with 1 mM MgSO4).
Take `COc1cc2c(cc1OCCCC(=O)Nc1cc(C(=O)Nc3ccc4oc(C(=O)N5CCSCC5)cc4c3)n(C)c1)N=C[C@@H]1CCCN1C2=O` [PP-A148, (S)-4-(4-((7-methoxy-5-oxo-2,3,5,11a-tetrahydro-1H-benzo-[e]pyrrolo[1,2-a][1,4]diazepin-8-yl)oxy)butanamido)-1-methyl-N-(2-(thiomorpholine-4-carbonyl)benzofuran-5-yl)-1H-pyrrole-2-carboxamide]: the MIC was 0.25 to 0.5 µg/mL (≈ 0.358 to 0.716 µM) in assay [5] (setting [9]), 16 to 32 µg/mL (≈ 22.9 to 45.8 µM) in assay [6] (setting [10]), 16 µg/mL (≈ 22.9 µM) in assay [7] (setting [11]) and 4 to 8 µg/mL (≈ 5.72 to 11.4 µM) in assay [8]. Further, the “+PABN MIC” value in assay [5] (M6) was 0.125 µg/mL; in assay [6] (NCTC 13368) it was 2 to 8 µg/mL. For the same compound, the “effect on topoisomerase IV” value in assay [1] and in assay [2] was “does not inhibit” in each case. The effect on gyrase result in assay [3] and in assay [4] was “inhibits” in each case.
